# Data: patent US20260347373A1, “HETEROCYCLIC COMPOUNDS, COMPOSITIONS THEREOF, AND METHODS OF TREATMENT THEREWITH” (BeOne Medicines I GmbH, priority 2023, published 2026)
# Target: KRAS G12D (Homo sapiens, UniProt P01116, G12D)
# Assay: KRAS G12D Probe Displacement Assay (TR-FRET, GDP-loaded)
# Format: binding
# Conditions: KRAS G12D, read-out: KRAS^G12D Probe Displacement Assay IC50
# From the text: The synthetic routes of probe 1 and 2, which have been disclosed in PCT/CN2022/070676, are hereby incorporated herein.
# Sequence of KRAS G12D (P01116 1-188 isoform P01116-2 G12D): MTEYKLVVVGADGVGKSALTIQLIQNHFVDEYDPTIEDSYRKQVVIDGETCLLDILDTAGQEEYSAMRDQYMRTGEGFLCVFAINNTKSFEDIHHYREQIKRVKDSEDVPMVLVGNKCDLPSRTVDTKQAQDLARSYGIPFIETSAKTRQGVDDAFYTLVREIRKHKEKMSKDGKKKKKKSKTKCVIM
row,SMILES,IC50
1,"Cc1cc(N)cc(-c2nc3c4c(nc(O[C@H]5COC[C@H]5N(C)C)nc4c2F)N2C[C@H]4CC[C@H](N4)[C@H]2CCO3)c1C(F)(F)F [Example 39, (3R,4R)-4-(((6aR,7S,10R)-2-(5-amino-3-methyl-2-(trifluoromethyl)phenyl)-1-fluoro-5,6,6a,7,8,9,10,11-octahydro-4-oxa-3,11a,12,14,15-pentaaza-7,10-methanocyclohepta[4,5]cycloocta [1,2,3-de]naphthalen-13-yl)oxy)-N,N-dimethyltetrahydrofuran-3-amine]",3 to 1000 nM
2,"COC1CN(C)CC(C)(COc2nc3c4c(nc(-c5cc(N)cc(C)c5C(F)(F)F)c(F)c4n2)OCC[C@@H]2[C@@H]4CC[C@H](CN32)N4)C1 (stereo partly drawn) [Example 129, 3-((6aR,7S,10R)-1-fluoro-13-((5-methoxy-1,3-dimethylpiperidin-3-yl)methoxy)-5,6,6a,7,8,9,10,11-octahydro-4-oxa-3,11a,12,14,15-pentaaza-7,10-methanocyclohepta[4,5]cycloocta[1,2,3-de]naphthalen-2-yl)-5-methyl-4-(trifluoromethyl)aniline]",3 to 1000 nM
3,"Cc1cc(N)cc(-c2nc3c4c(nc(O[C@@H]5COCC[C@H]5N(C)C)nc4c2F)N2C[C@H]4CC[C@H](N4)[C@H]2CCO3)c1C(F)(F)F [Example 10, (3S,4R)-3-(((6aR,7S,10R)-2-(5-amino-3-methyl-2-(trifluoromethyl)phenyl)-1-fluoro-5,6,6a,7,8,9,10,11-octahydro-4-oxa-3,11a,12,14,15-pentaaza-7,10-methanocyclohepta[4,5]cycloocta [1,2,3-de]naphthalen-13-yl)oxy)-N,N-dimethyltetrahydro-2H-pyran-4-amine]",3 to 1000 nM
4,"CO[C@H]1CCN(C)[C@@H]1C(C)Oc1nc2c3c(nc(-c4cc(N)cc(C)c4C(F)(F)F)c(F)c3n1)OCC[C@@H]1[C@@H]3CC[C@H](CN21)N3 (single isomer, unassigned) [Example 76]",0.3 to 3 nM
5,"Cc1cc(N)cc(-c2nc3c4c(nc(OCC5(C)COCC5N(C)C)nc4c2F)N2C[C@H]4CC[C@H](N4)[C@H]2CCO3)c1C(F)(F)F (mixture of isomers) [Example 15, 4-((((6aR,7S,10R)-2-(5-amino-3-methyl-2-(trifluoromethyl)phenyl)-1-fluoro-5,6,6a,7,8,9,10,11-octahydro-4-oxa-3,11a,12,14,15-pentaaza-7,10-methanocyclohepta[4,5]cycloocta [1,2,3-de]naphthalen-13-yl)oxy)methyl)-N,N,4-trimethyltetrahydrofuran-3-amine]",0.3 to 3 nM
6,"Cc1cc(N)cc(-c2nc3c4c(nc(O[C@H]5CCOC[C@@H]5N(C)C)nc4c2F)N2C[C@H]4CC[C@H](N4)[C@H]2CCO3)c1C(F)(F)F [Example 9, (3S,4S)-4-(((6aR,7S,10R)-2-(5-amino-3-methyl-2-(trifluoromethyl)phenyl)-1-fluoro-5,6,6a,7,8,9,10,11-octahydro-4-oxa-3,11a,12,14,15-pentaaza-7,10-methanocyclohepta[4,5]cycloocta [1,2,3-de]naphthalen-13-yl)oxy)-N,N-dimethyltetrahydro-2H-pyran-3-amine]",3 to 1000 nM
7,"COC1CN(C)CC(C)(COc2nc3c4c(nc(-c5cc(N)cc(C)c5C(F)(F)F)c(F)c4n2)OCC[C@@H]2[C@@H]4CC[C@H](CN32)N4)C1 (stereo partly drawn) [Example 127, 3-((6aR,7S,10R)-1-fluoro-13-((5-methoxy-1,3-dimethylpiperidin-3-yl)methoxy)-5,6,6a,7,8,9,10,11-octahydro-4-oxa-3,11a,12,14,15-pentaaza-7,10-methanocyclohepta[4,5]cycloocta[1,2,3-de]naphthalen-2-yl)-5-methyl-4-(trifluoromethyl)aniline]",< 0.3 nM
8,"CCN1CC(F)CC(C)(COc2nc3c4c(nc(-c5cc(N)cc(C)c5C(F)(F)F)c(F)c4n2)OCC[C@@H]2[C@@H]4CC[C@H](CN32)N4)C1 (stereo partly drawn) [Example 203, 3-((6aR,7S,10R)-13-((1-ethyl-5-fluoro-3-methylpiperidin-3-yl)methoxy)-1-fluoro-5,6,6a,7,8,9,10,11-octahydro-4-oxa-3,11a,12,14,15-pentaaza-7,10-methanocyclohepta[4,5]cycloocta[1,2,3-de]naphthalen-2-yl)-5-methyl-4-(trifluoromethyl)aniline]",0.3 to 3 nM
9,"CO[C@@H]1C[C@@H](C(C)Oc2nc3c4c(nc(-c5cc(N)cc(C)c5C(F)(F)F)c(F)c4n2)OCC[C@@H]2[C@@H]4CC[C@H](CN32)N4)N(C)C1 (single isomer, unassigned) [Example 145]",0.3 to 3 nM
10,"Cc1cc(N)cc(-c2nc3c4c(nc(OCC5(CN6CCCC6CO)CC5)nc4c2F)N2C[C@H]4CC[C@H](N4)[C@H]2CCO3)c1C(F)(F)F (single isomer, unassigned) [Example 125]",< 0.3 nM
11,"Cc1cc(N)cc(-c2nc3c4c(nc(O[C@H]5CCOC[C@H]5N(C)C)nc4c2F)N2C[C@H]4CC[C@H](N4)[C@H]2CCO3)c1C(F)(F)F [Example 11, (3R,4S)-4-(((6aR,7S,10R)-2-(5-amino-3-methyl-2-(trifluoromethyl)phenyl)-1-fluoro-5,6,6a,7,8,9,10,11-octahydro-4-oxa-3,11a,12,14,15-pentaaza-7,10-methanocyclohepta[4,5]cycloocta [1,2,3-de]naphthalen-13-yl)oxy)-N,N-dimethyltetrahydro-2H-pyran-3-amine]",3 to 1000 nM
12,"Cc1cc(N)cc(-c2nc3c4c(nc(OCC5(CN6CCn7ncnc7C6)CC5)nc4c2F)N2C[C@H]4CC[C@H](N4)[C@H]2CCO3)c1C(F)(F)F [Example 109, 3-((6aR,7S,10R)-13-((1-((5,6-dihydro-[1,2,4]triazolo[1,5-a]pyrazin-7(8H)-yl)methyl)cyclopropyl)methoxy)-1-fluoro-5,6,6a,7,8,9,10,11-octahydro-4-oxa-3,11a, 12,14,15-pentaaza-7,10-methanocyclohepta [4,5]cycloocta [1,2,3-de]naphthalen-2-yl)-5-methyl-4-(trifluoromethyl)aniline]",3 to 1000 nM
13,"Cc1cc(N)cc(-c2nc3c4c(nc(O[C@H]5COCC[C@H]5N(C)C)nc4c2F)N2C[C@H]4CC[C@H](N4)[C@H]2CCO3)c1C(F)(F)F [Example 12, (3R,4R)-3-(((6aR,7S,10R)-2-(5-amino-3-methyl-2-(trifluoromethyl)phenyl)-1-fluoro-5,6,6a,7,8,9,10,11-octahydro-4-oxa-3,11a,12,14,15-pentaaza-7,10-methanocyclohepta[4,5]cycloocta [1,2,3-de]naphthalen-13-yl)oxy)-N,N-dimethyltetrahydro-2H-pyran-4-amine]",3 to 1000 nM
14,"Cc1cc(N)cc(-c2nc3c4c(nc(O[C@H]5COC[C@@H]5N(C)C)nc4c2F)N2C[C@H]4CC[C@H](N4)[C@H]2CCO3)c1C(F)(F)F [Example 40, (3S,4R)-4-(((6aR,7S,10R)-2-(5-amino-3-methyl-2-(trifluoromethyl)phenyl)-1-fluoro-5,6,6a,7,8,9,10,11-octahydro-4-oxa-3,11a,12,14,15-pentaaza-7,10-methanocyclohepta[4,5]cycloocta [1,2,3-de]naphthalen-13-yl)oxy)-N,N-dimethyltetrahydrofuran-3-amine]",3 to 1000 nM
